Laboratory results reported in patent US20250231185A1, “Coronavirus T Cell Epitopes, Megapools and Uses Thereof” (La Jolla Institute for Immunology, priority 2021, published 2025).
Entries after “also recorded” stand apart in the source; their conditions may differ. Like-named read-outs stand apart in the source and are kept apart here.

Tests used:
CD4+ T cells = details: cited from earlier work; for Allele(s): HLA class II allele(s) identified as MHC restriction elements of the CD4 epitope; for Dominant: SARS-CoV-2-derived CD4 epitopes, Yes = recognized by 3 or more donors/different studies; for Restriction: T cell subset (CD4 or CD8) recognizing the SARS-CoV-2 epitope
CD8+ T cells [1] = details: cited from earlier work
CD8+ T cells [2] = test: Meta-analysis of published SARS-CoV-2 CD8 T cell epitope data curated in the IEDB (25 studies); format: cell-based, human; details: for Dominant: dominant = recognized by 3 or more donors/different studies
[3] = T cell type (CD4 or CD8) recognizing the SARS-CoV-2 epitope
[4] = SARS-CoV-2-derived CD8 epitopes
[5] = SARS-CoV-2 Ag S, T cell type recognizing the epitope

Substance	Restriction (CD8+ T cells [1]; [3])	Dominant (CD8+ T cells [2]; [4])	Restriction (CD8+ T cells [1]; [5])	Dominant (CD8+ T cells [2]; SARS-CoV-2 Ag S, CD8 epitopes)	other results
253 (YIINLIIKNLSKSLT) [compound 253]	–	–	–	–	Allele(s) (HLA restriction) (CD4+ T cells; CD4-restricted epitopes, HLA class II alleles identified as MHC restriction elements): DRB1*11:02, DRB1*13:03
90 (ASAFFGMSRIGMEVT) [compound 90]	–	–	–	–	Allele(s) (CD4+ T cells): DQB1*05:03, DRB1*01:02,; also recorded: DRB1*14:01; Dominant (CD4+ T cells): Yes (more dominant epitopes are defined by being recognized by 3 or more donors/different studies); Restriction (CD4+ T cells): CD4
59 (IGYYRRATRRIRGGD) [compound 59]	–	–	–	–	Dominant (CD4+ T cells): Yes (more dominant epitopes are defined by being recognized by 3 or more donors/different studies); Restriction (CD4+ T cells): CD4
65 (PRWYFYYLGTGPEAG) [compound 65]	–	–	–	–	Allele(s) (CD4+ T cells): DQB1*02:01, DQB1*05:03; Restriction (CD4+ T cells): CD4
101 (ILLNKHIDAYKTFPP) [compound 101]	–	–	–	–	Allele(s) (CD4+ T cells): DRB1*14:06, DRB1*15:01; Dominant (CD4+ T cells): Yes (more dominant epitopes are defined by being recognized by 3 or more donors/different studies); Restriction (CD4+ T cells): CD4
30 (GAVILRGHLRIAGHHLGR) [compound 30]	–	–	–	–	Dominant (CD4+ T cells): Yes (more dominant epitopes are defined by being recognized by 3 or more donors/different studies); Restriction (CD4+ T cells): CD4
92 (GMEVTPSGTWLTYTGAIKLD) [compound 92]	–	–	–	–	Dominant (CD4+ T cells): Yes (more dominant epitopes are defined by being recognized by 3 or more donors/different studies); Restriction (CD4+ T cells): CD4
82 (TQAFGRRGPEQTQGN) [compound 82]	–	–	–	–	Restriction (CD4+ T cells): CD4
1053 (TYACWHHSI) [compound 1053]	CD8	Yes (more dominant epitopes are defined by being recognized by 3 or more donors/different studies)	–	–	–
1324 (GPKKSTNLV) [compound 1324]	–	–	CD8	Yes (more dominant epitopes are defined by being recognized by 3 or more donors/different studies)	–
964 (RQLLFVVEV) [compound 964]	CD8	Yes (more dominant epitopes are defined by being recognized by 3 or more donors/different studies)	–	–	–
1405 (VLNDILSRL) [compound 1405]	–	–	CD8	Yes (more dominant epitopes are defined by being recognized by 3 or more donors/different studies)	–
966 (VVDKYFDCY) [compound 966]	CD8	Yes (more dominant epitopes are defined by being recognized by 3 or more donors/different studies)	–	–	–
1029 (KLNVGDYFV) [compound 1029]	CD8	Yes (more dominant epitopes are defined by being recognized by 3 or more donors/different studies)	–	–	–
1421 (YHLMSFPQSA) [compound 1421]	–	–	CD8	Yes (more dominant epitopes are defined by being recognized by 3 or more donors/different studies)	–
1084 (MLWCKDGHV) [compound 1084]	CD8	Yes (more dominant epitopes are defined by being recognized by 3 or more donors/different studies)	–	–	–
1072 (KVDGVDVEL) [compound 1072]	CD8	Yes (more dominant epitopes are defined by being recognized by 3 or more donors/different studies)	–	–	–
1019 (VLQAVGACV) [compound 1019]	CD8	Yes (more dominant epitopes are defined by being recognized by 3 or more donors/different studies)	–	–	–
1367 (LLQYGSFCT) [compound 1367]	–	–	CD8	Yes (more dominant epitopes are defined by being recognized by 3 or more donors/different studies)	–
1362 (TEILPVSMTK) [compound 1362]	–	–	CD8	Yes (more dominant epitopes are defined by being recognized by 3 or more donors/different studies)	–
1396 (TQNVLYENQK) [compound 1396]	–	–	CD8	Yes (more dominant epitopes are defined by being recognized by 3 or more donors/different studies)	–
1342 (IGAEHVNNSY) [compound 1342]	–	–	CD8	Yes (more dominant epitopes are defined by being recognized by 3 or more donors/different studies)	–
913 (YTELEPPCRF) [compound 913]	CD8	Yes (more dominant epitopes are defined by being recognized by 3 or more donors/different studies)	–	–	–
1321 (SFELLHAPATV) [compound 1321]	–	–	CD8	Yes (more dominant epitopes are defined by being recognized by 3 or more donors/different studies)	–
943 (KLFDRYFKY) [compound 943]	CD8	Yes (more dominant epitopes are defined by being recognized by 3 or more donors/different studies)	–	–	–

Substance	Restriction (CD8+ T cells [1]; [3])	Dominant (CD8+ T cells [2]; [4])	Restriction (CD8+ T cells [1]; [5])	Dominant (CD8+ T cells [2]; SARS-CoV-2 Ag S, CD8 epitopes)	other results
1082 (LLLDDFVEII) [compound 1082]	CD8	Yes (more dominant epitopes are defined by being recognized by 3 or more donors/different studies)	–	–	–
1392 (LQIPFAMQMAY) [compound 1392]	–	–	CD8	Yes (more dominant epitopes are defined by being recognized by 3 or more donors/different studies)	–
1008 (RILGAGCFV) [compound 1008]	CD8	Yes (more dominant epitopes are defined by being recognized by 3 or more donors/different studies)	–	–	–
1425 (FPQSAPHGVVF) [compound 1425]	–	–	CD8	Yes (more dominant epitopes are defined by being recognized by 3 or more donors/different studies)	–
939 (LLMPILTLT) [compound 939]	CD8	Yes (more dominant epitopes are defined by being recognized by 3 or more donors/different studies)	–	–	–
1453 (NLNESLIDL) [compound 1453]	–	–	CD8	Yes (more dominant epitopes are defined by being recognized by 3 or more donors/different studies)	–
YLQPRTFLL [SEQ ID NO: 1481]	–	–	–	–	recognized in subjects (CD8+ T cells [1]; Ferretti et al., 67% of the subjects tested): ≥ 3 subjects; IFN-f response (CD8+ T cells [1]; Habel et al., 14 peptides screened, HLA-A*02:01): strongest; detected in HLA-A2+ individuals (CD8+ T cells [1]; Nielsen study, HLA-A*02:01): 81%; responses detected in patients (CD8+ T cells [1]; Rha et al., 37 of 112 and 2 of 40 patients): 33%; MHC class I multimer+ cells in unexposed subjects (CD8+ T cells [1]; Rha et al.): not detected; dominance as reported (CD8+ T cells [1]; Sahin et al.): most dominant epitope; found to be positive in independent studies (CD8+ T cells [2]; overall, all curated studies): 11 independent studies
931 (TMADLVYAL) [compound 931]	CD8	Yes (more dominant epitopes are defined by being recognized by 3 or more donors/different studies)	–	–	–
1365 (STECSNLLLQY) [compound 1365]	–	–	CD8	Yes (more dominant epitopes are defined by being recognized by 3 or more donors/different studies)	–
1012 (LYLQYIRKL) [compound 1012]	CD8	Yes (more dominant epitopes are defined by being recognized by 3 or more donors/different studies)	–	–	–
905 (ALWEIQQV) [compound 905]	CD8	Yes (more dominant epitopes are defined by being recognized by 3 or more donors/different studies)	–	–	–
1042 (IVDTVSALV) [compound 1042]	CD8	Yes (more dominant epitopes are defined by being recognized by 3 or more donors/different studies)	–	–	–
995 (FYAYLRKHF) [compound 995]	CD8	Yes (more dominant epitopes are defined by being recognized by 3 or more donors/different studies)	–	–	–
1041 (VYIGDPAQL) [compound 1041]	CD8	Yes (more dominant epitopes are defined by being recognized by 3 or more donors/different studies)	–	–	–
1057 (ALLADKFPV) [compound 1057]	CD8	Yes (more dominant epitopes are defined by being recognized by 3 or more donors/different studies)	–	–	–
1061 (SYATHSDKF) [compound 1061]	CD8	Yes (more dominant epitopes are defined by being recognized by 3 or more donors/different studies)	–	–	–
1052 (VLWAHGFEL) [compound 1052]	CD8	Yes (more dominant epitopes are defined by being recognized by 3 or more donors/different studies)	–	–	–
1069 (NLWNTFTRL) [compound 1069]	CD8	Yes (more dominant epitopes are defined by being recognized by 3 or more donors/different studies)	–	–	–
1352 (SIIAYTMSL) [compound 1352]	–	–	CD8	Yes (more dominant epitopes are defined by being recognized by 3 or more donors/different studies)	–
1067 (KQFDTYNLW) [compound 1067]	CD8	Yes (more dominant epitopes are defined by being recognized by 3 or more donors/different studies)	–	–	–
1466 (SEPVLKGVKL) [compound 1466]	–	–	CD8	Yes (more dominant epitopes are defined by being recognized by 3 or more donors/different studies)	–
1313 (YFPLQSYGF) [compound 1313]	–	–	CD8	Yes (more dominant epitopes are defined by being recognized by 3 or more donors/different studies)	–
920 (TVLSFCAFAV) [compound 920]	CD8	Yes (more dominant epitopes are defined by being recognized by 3 or more donors/different studies)	–	–	–
1345 (IPIGAGICASY) [compound 1345]	–	–	CD8	Yes (more dominant epitopes are defined by being recognized by 3 or more donors/different studies)	–
1462 (KWPWYIWLGF) [compound 1462]	–	–	CD8	Yes (more dominant epitopes are defined by being recognized by 3 or more donors/different studies)	–
